# Key:
# Type in all cases: in vivo
# Settings in all cases: evaluated after 13 days
# [1] = tested on: Ipomoea hederacea (IPOHE); assay: Pre-emergence Test, Ipomoea hederacea (IPOHE)
# [2] = tested on: Echinochloa crus-galli (ECHCG); assay: Pre-emergence Test, Echinochloa crus-galli (ECHCG)
# [3] = tested on: Amaranthus palmeri (AMAPA); assay: Post-emergence Test, Amaranthus palmeri (AMAPA); design: key: 5=81-100%, 4=61-80%, 3=41-60%, 2=21-40%, 1=0-20% damage
# How it was run: (§1)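 Tested at 1000 g/ha unless otherwise stated. Plants were held at 24/16 °C day/night with a 14 h light period. Percent damage was read at 13 days and reported in five bands.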
# [4] = tested on: Ipomoea hederacea (IPOHE); assay: Post-emergence Test, Ipomoea hederacea (IPOHE); design: key to percentage damage caused to the plant, IPOHE (five-point scale): 5=81-100%, 4=61-80%, 3=41-60%, 2=21-40%, 1=0-20% damage
# How it was run: as §1
# Zea mays (ZEAMX) [5] = assay: Pre-emergence Test, Zea mays (ZEAMX)
# [6] = tested on: Echinochloa crus-galli (ECHCG); assay: Post-emergence Test, Echinochloa crus-galli (ECHCG); design: key to percentage damage caused to the plant, ECHCG (five-point scale): 5=81-100%, 4=61-80%, 3=41-60%, 2=21-40%, 1=0-20% damage
# How it was run: as §1
# Setaria faberi (SETFA) [7] = assay: Pre-emergence Test, Setaria faberi (SETFA)
# Setaria faberi (SETFA) [8] = assay: Post-emergence Test, Setaria faberi (SETFA); design: key to percentage damage caused to the plant, SETFA (five-point scale): 5=81-100%, 4=61-80%, 3=41-60%, 2=21-40%, 1=0-20% damage
# How it was run: as §1
# Zea mays (ZEAMX) [9] = assay: Post-emergence Test, Zea mays (ZEAMX); design: key to percentage damage caused to the plant, ZEAMX (five-point scale): 5=81-100%, 4=61-80%, 3=41-60%, 2=21-40%, 1=0-20% damage
# How it was run: as §1
# [10] = tested on: Amaranthus retoflexus (AMARE); assay: Pre-emergence Test, Amaranthus retoflexus (AMARE)
# [11] = tested on: Amaranthus palmeri (AMAPA); assay: Pre-emergence Test, Amaranthus palmeri (AMAPA)
# [12] = tested on: Amaranthus retoflexus (AMARE); assay: Post-emergence Test, Amaranthus retoflexus (AMARE); design: key to percentage damage caused to the plant, AMARE (five-point scale): 5=81-100%, 4=61-80%, 3=41-60%, 2=21-40%, 1=0-20% damage
# How it was run: as §1
SMILES,"Pre-emergence Test IPOHE, percentage damage caused to the plant (five-point scale) ([1]; 1000 g/ha)","Pre-emergence Test ECHCG, percentage damage caused to the plant (five-point scale) ([2]; 1000 g/ha)","percentage damage caused to the plant, AMAPA (five-point scale) ([3]; 250 g/Ha)","percentage damage caused to the plant, AMAPA (five-point scale) ([3]; 1000 g/ha)","percentage damage caused to the plant, IPOHE (five-point scale) ([4]; 250 g/Ha)","percentage damage caused to the plant, IPOHE (five-point scale) ([4]; 1000 g/ha)","Pre-emergence Test ZEAMX, percentage damage caused to the plant (five-point scale) (Zea mays (ZEAMX) [5]; 1000 g/ha)","percentage damage caused to the plant, ECHCG (five-point scale) ([6]; 250 g/Ha)","percentage damage caused to the plant, ECHCG (five-point scale) ([6]; 1000 g/ha)","Pre-emergence Test SETFA, percentage damage caused to the plant (five-point scale) (Setaria faberi (SETFA) [7]; 1000 g/ha)","percentage damage caused to the plant, SETFA (five-point scale) (Setaria faberi (SETFA) [8]; 250 g/Ha)","percentage damage caused to the plant, SETFA (five-point scale) (Setaria faberi (SETFA) [8]; 1000 g/ha)","percentage damage caused to the plant, ZEAMX (five-point scale) (Zea mays (ZEAMX) [9]; 250 g/Ha)","percentage damage caused to the plant, ZEAMX (five-point scale) (Zea mays (ZEAMX) [9]; 1000 g/ha)","Pre-emergence Test AMARE, percentage damage caused to the plant (five-point scale) ([10]; 1000 g/ha)","Pre-emergence Test AMAPA, percentage damage caused to the plant (five-point scale) ([11]; 1000 g/ha)","percentage damage caused to the plant, AMARE (five-point scale) ([12]; 250 g/Ha)","percentage damage caused to the plant, AMARE (five-point scale) ([12]; 1000 g/ha)",other results
"CCn1c(Cn2nc(C(F)(F)F)cc2OCCOC)cc(=O)c(C(=O)O)c1-c1ccc(Cl)c(Cl)c1 [Compound 144, 2-(3,4-dichlorophenyl)-1-ethyl-6-[[5-(2-methoxyethoxy)-3-(trifluoromethyl)pyrazol-1-yl]methyl]-4-oxo-pyridine-3-carboxylic acid]",1 (1=0-20%),1 (1=0-20%),0,1 (1=0-20%),1 (1=0-20%),2 (2=21-40%),0,2 (2=21-40%),3 (3=41-60%),5 (5=81-100%),2 (2=21-40%),3 (3=41-60%),0,3 (3=41-60%),0,0,1 (1=0-20%),2 (2=21-40%),–
"CCn1c(Cn2nc(C(F)(F)F)cc2O)cc(=O)c(C(=O)O)c1-c1ccc(Cl)c(Cl)c1 [Compound 147, 2-(3,4-dichlorophenyl)-1-ethyl-6-[[5-hydroxy-3-(trifluoromethyl)pyrazol-1-yl]methyl]-4-oxo-pyridine-3-carboxylic acid]",0,0,–,0,–,1 (1=0-20%),0,–,0,1 (1=0-20%),–,0,–,0,0,1 (1=0-20%),–,1 (1=0-20%),–
"CCOC(=O)c1cc(C(=O)OCC)n(Cc2cc(=O)c(C(=O)O)c(-c3ccc(Cl)c(Cl)c3)n2CC)n1 [Compound 112, 6-[[3,5-bis(ethoxycarbonyl)pyrazol-1-yl]methyl]-2-(3,4-dichlorophenyl)-1-ethyl-4-oxo-pyridine-3-carboxylic acid]",0,0,–,1 (1=0-20%),–,2 (2=21-40%),0,–,2 (2=21-40%),0,–,1 (1=0-20%),–,0,1 (1=0-20%),1 (1=0-20%),–,1 (1=0-20%),–
"CCn1c(Cn2nc(C(F)(F)F)cc2OC)cc(=O)c(C(=O)O)c1-c1ccc(Cl)c(Cl)c1 [Compound 145, 2-(3,4-dichlorophenyl)-1-ethyl-6-[[5-methoxy-3-(trifluoromethyl)pyrazol-1-yl]methyl]-4-oxo-pyridine-3-carboxylic acid]",3 (3=41-60%),4 (4=61-80%),0,3 (3=41-60%),3 (3=41-60%),3 (3=41-60%),0,3 (3=41-60%),4 (4=61-80%),5 (5=81-100%),3 (3=41-60%),4 (4=61-80%),1 (1=0-20%),3 (3=41-60%),1 (1=0-20%),0,1 (1=0-20%),3 (3=41-60%),"Pre-emergence Test IPOHE, percentage damage caused to the plant (five-point scale) ([1]; 250 g/Ha (*)): 0; Pre-emergence Test ECHCG, percentage damage caused to the plant (five-point scale) ([2]; 250 g/Ha (*)): 2 (2=21-40%); Pre-emergence Test ZEAMX, percentage damage caused to the plant (five-point scale) (Zea mays (ZEAMX) [5]; 250 g/Ha (*)): 0; Pre-emergence Test SETFA, percentage damage caused to the plant (five-point scale) (Setaria faberi (SETFA) [7]; 250 g/Ha (*)): 5 (5=81-100%); Pre-emergence Test AMARE, percentage damage caused to the plant (five-point scale) ([10]; 250 g/Ha (*)): 0; Pre-emergence Test AMAPA, percentage damage caused to the plant (five-point scale) ([11]; 250 g/Ha (*)): 0"
"CCn1c(Cn2cc(C(=O)OC)cn2)cc(=O)c(C(=O)O)c1-c1ccc(Cl)c(Cl)c1 [Compound 40, 2-(3,4-dichlorophenyl)-1-ethyl-6-[(4-methoxycarbonylpyrazol-1-yl)methyl]-4-oxo-pyridine-3-carboxylic acid]",2 (2=21-40%),0,0,1 (1=0-20%),0,2 (2=21-40%),0,1 (1=0-20%),0,1 (1=0-20%),0,1 (1=0-20%),0,2 (2=21-40%),1 (1=0-20%),3 (3=41-60%),1 (1=0-20%),0,–

# Reference: patent publication US20250098679A1, “HERBICIDAL PYRIDONE DERIVATIVES” (SYNGENTA CROP PROTECTION AG, priority 2021, published 2025)
